In patent US20250241906A1, “ANABOLIC DRUGS STIMULATING TYPE II COLLAGEN PRODUCTION FROM CHONDROCYTES OR THEIR PROGENITORS” (UNIVERSITY OF CENTRAL FLORIDA RESEARCH FOUNDATION, INC., priority 2022, published 2025):
“Also recorded” adds a separate entry of the source. Read-outs that look alike come from different tables or passages of the source.

Legend:
[1] = tested on: type II collagen promoter (COL2A1-Gaussia luciferase) in primary human chondrocytes; assay: HuCol2gLuc 3D aggregate type II collagen promoter-driven Gaussia luciferase assay; assay type: cell-based; details: for stimulation of type II collagen production in the screen of natural products: NCI Natural Products Set V, 5 μM continuously, 22-day assay; for cumulative luminescence: validation
Experimental: Chondrogenic Culture. Human COL2A1-GLuc or uninfected cells were thawed and seeded in growth media on synoviocyte matrix at 6,000 cells/cm^2 and expanded to 90-100% confluence in physioxia. Cells were trypsinized (0.25% Trypsin/EDTA; Corning), resuspended in growth media (for monolayer culture) or chondrogenic differentiation media for 3D aggregates (93.24% High-Glucose DMEM (Gibco), 1% dexamethasone 10^−5M (Sigma), 1% ITS+premix (Becton-Dickinson), 1% Glutamax (Hyclone), 1% 100 mM Sodium Pyruvate (Hyclone), 1% MEM Non-Essential Amino Acids (Hyclone), 0.26% L-Ascorbic Acid Phosphate 50 mM (Wako), 0.5% Fungizone (Life Technologies) with TGF-β1 (Peprotech) and seeded as described below.
Generation and Maintenance of 3D aggregates. To generate 3D aggregates, cells were seeded at 50,000 cells per well (in 96-well cell repellent u-bottom plates, GreinerBio) and then centrifuged at 500 RCF, 5 min. For the initial drug screen, aggregates were cultured in basal chondrogenic media (1 ng/ml TGF-β1) alone, with DMSO (vehicle control) or 5 μM of the drug compounds from the NCI library (Natural Products V, NCI). For candidate validation and subsequent studies aggregates were cultured in basal chondrogenic media (10 ng/ml TGF-β1) alone, with DMSO (vehicle control) or compounds as indicated in the results. Aggregates were cultured for three weeks in physioxic conditions, culture medium was sampled and replaced three times a week with fresh medium. An OT-2 (Opentrons) python coded robotic pipette, programmed at an aspiration height of 2 mm from the bottom of the wells and aspiration rate of 40 μl/s was utilized for addition of compound, cell feeding, and media sampling for luciferase assay. After three weeks, cell aggregates were either fixed in neutral buffered formalin for histology or medium removed and aggregates frozen dry (−20° C.) for biochemical assays.
Luciferase Assay. Conditioned culture medium sampled from aggregates in 96-wells (20 μL/well) was assessed using a stabilized Gaussia Luciferase buffer mix (50 µl/well) for a final concentration of 0.09 M MES, 0.15M Ascorbic Acid, and 4.2 μM Coelenterazine in white 96-well plates. Luminescence was measured in a plate reader (25° C., relative light units (RLU), En Vision plate reader). An OT-2 (Opentrons) python coded robotic pipette was utilized for luciferase buffer addition to white plates (GreinerBio).

HuCol2gLuc aggregates [2] = assay: Biochemical assays (DNA, GAG, total collagen) on HuCol2gLuc aggregates; assay type: cell-based, human
Experimental: Biochemical Assays. Aggregates frozen at day 22, were thawed with PBS, and digested with Papain (25 μg/ml, Sigma, P4762, in 2 mM cysteine; 50 mM sodium phosphate; 2 mM EDTA at a pH 6.5, 100 μl) at 65° C. overnight. Plates were sealed with a qPCR adhesive sealing film (USA Scientific), a silicone sheet, and steel plates clamped to the plate to prevent evaporation during digestion. Half of the digest (50 μl) was transferred to another plate and frozen for hydroxyproline assessment. In the remaining digest, papain was inactivated with 0.1M sodium hydroxide (NaOH, 50 μl) followed by NaOH neutralization (100 mM Na2HPO4, 0.1 N HCL, pH 1.82, 50 μl). To quantitate DNA content, samples of the neutralized digest (20 μl) were combined with buffered Hoechst dye (#33258, 667 ng/ml, phosphate buffer pH 8, 100 μl) and fluorescence measured at an excitation of 365 nm and emission of 460 nm. For GAG assessment, 1,9-Dimethyl-methylene blue solution (195 μl) was added to neutralized digests (5 μl) and absorbance measured at 595 nm and 525 nm. Readings were corrected by subtracting 595 nm reading from 525 nm. Micrograms of DNA and GAG were calculated using a Calf thymus DNA standard (Sigma) or Chondroitin Sulfate standard (Seikagaku Corp.), respectively.
For hydroxyproline (HP) quantification, the frozen digests (50 μl) were thawed at room temperature and incubated overnight at 105° C. with 6M hydrochloric acid (200 μl). Plates were sealed to prevent evaporation. Samples were then dried at 70° C. overnight with a hydroxyproline standard (Sigma). Copper sulfate (0.15 M, 10 μl) and NaOH (2.5 M, 10 μl) were added to each well and incubated at 50° C. for 5 minutes, followed by hydrogen peroxide (6%, 10 μl) for 10 minutes. Sulfuric acid (1.5 M, 40 μl) and Ehrlich's reagent (20 μl) were added and samples incubated at 70° C. for 15 minutes. Absorbance was measured at 505 nm. Micrograms of hydroxyproline were calculated using the standard. Total collagen was calculated by the following formula (μg of HP×7.6=μg Total Collagen).

HuCol2gLuc aggregates [3] = assay: Metabolic assay (resazurin) on HuCol2gLuc aggregates; assay type: cell-based, human; details: day 22
Experimental: Metabolic Assay (Resazurin). Metabolic activity was assessed on day 22 by adding resazurin to a final concentration of 50 μM to each well and incubating at physioxia for 3 hours. After three hours, media (120 μl) was transferred to a 96-well black plate (Greinerbio) and fluorescence read at an excitation of 535 nm and emission at 588 nm. At OT-2 (Opentrons) python-coded robotic pipette was used to add resazurin to cell plates as well as to transfer medium to black plates.

[4] = tested on: kinase phosphorylation in primary human chondrocytes; assay: Phospho-kinase array on primary human chondrocyte lysate; assay type: cell-based; details: donor 2, 24 h, vs DMSO
Experimental: Phospho-kinase Array. Primary human chondrocytes were seeded at 5×10^6 cells (2×10 cm adherent dish, Corning) in growth media and allowed to adhere overnight. Growth media was replaced with chondrogenic media supplemented with 1 ng/mL TGFβ1 with DMSO or with drug […]. Cells were treated for 24 h before processing according to the manufacturer's protocol (ARY003C, R&D Systems). This phospho-kinase array contains capture antibodies to measure relative levels of phosphorylation of 37 kinases on a nitrocellulose membrane. Signal intensity was quantified using ImageJ.

butyrylcholinesterase = butyrylcholinesterase (Homo sapiens, UniProt P06276); details: cited from earlier work
butyrylcholinesterase, sequence (P06276 29-602): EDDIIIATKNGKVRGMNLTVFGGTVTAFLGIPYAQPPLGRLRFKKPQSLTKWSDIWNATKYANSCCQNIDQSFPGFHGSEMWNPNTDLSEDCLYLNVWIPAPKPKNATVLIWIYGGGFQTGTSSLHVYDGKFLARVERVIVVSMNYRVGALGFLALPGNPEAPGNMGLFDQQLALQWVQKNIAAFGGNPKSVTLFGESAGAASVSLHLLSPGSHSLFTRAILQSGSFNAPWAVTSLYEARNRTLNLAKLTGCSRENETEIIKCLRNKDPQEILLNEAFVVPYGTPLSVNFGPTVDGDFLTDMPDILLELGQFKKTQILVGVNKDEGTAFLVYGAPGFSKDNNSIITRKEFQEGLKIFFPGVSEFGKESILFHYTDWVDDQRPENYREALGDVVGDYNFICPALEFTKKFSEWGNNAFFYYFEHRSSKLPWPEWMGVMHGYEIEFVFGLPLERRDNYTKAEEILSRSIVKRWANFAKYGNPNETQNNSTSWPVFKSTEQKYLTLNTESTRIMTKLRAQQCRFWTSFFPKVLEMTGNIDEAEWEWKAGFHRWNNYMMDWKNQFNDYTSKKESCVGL

Plasmodium falciparum = details: cited from earlier work
KB cell line = details: cited from earlier work

With Promoline [Drug 84] the “stimulation of type II collagen production in the screen of natural products” value ([1]; listed as 84) was “stimulatory effects; also recorded: stimulatory throughout the experiment”, the “stimulation of type II collagen production in the screen of natural products” value ([1]; listed as Promoline) was “stimulate type II collagen” and the EC50 ([1]; cumulative luminescence over 22 days) was 3070 nM. For the same substance, the EC50 ([1]; day 3, 0-10 μM, read-out: EC50 type II collagen driven-luminescence) was 2460 nM, the EC50 ([1]; day 10, 0-10 μM, read-out: EC50 type II collagen driven-luminescence) was 2580 nM and the “stimulation of type II collagen production during the early stages” value ([1]; natural product screen, day 8 volcano plot) was “stimulate type II collagen production during the early stages”. The “day 22 luminescence normalized to DMSO vehicle control” value ([1]; screen, 5 μM, 1 ng/ml TGF-β1) was “significant increase in luminescence”, the “trend of luminescence over 22 days normalized to DMSO” value ([1]; screen, 5 μM, 1 ng/ml TGF-β1) was “increase over the control as early as day 3 with a sustained increase in expression over 22 days” and the cumulative luminescence ([1]; donor 1) was “no significant effect”. The cumulative luminescence ([1]; donor 2) was “significant increase”, the “glycosaminoglycan (GAG) content” value (HuCol2gLuc aggregates [2]; day 22, donor 1) was “not statistically significant” and the total collagen (HuCol2gLuc aggregates [2]; day 22, donor 1) was “no observable effect”. The DNA content (HuCol2gLuc aggregates [2]; day 22, donor 2, vs untreated) was “no change in DNA content”, the “glycosaminoglycan (GAG) content” value (HuCol2gLuc aggregates [2]; day 22, donor 2, untreated 15 μg) was “decrease in GAG content” and the total collagen (HuCol2gLuc aggregates [2]; day 22, donor 2, untreated ~14 μg) was about 21 µg. For the same substance, the DNA content (HuCol2gLuc aggregates [2]; day 22, 10 μM) was “significant decrease”, the cytotoxicity (HuCol2gLuc aggregates [3]; 10 μM) was “cytotoxicity” and the “resazurin fluorescence (metabolic activity)” value (HuCol2gLuc aggregates [3]; 0-10 μM) was “dose dependent decrease”. The “AKT 1/2/3 phosphorylation at T308 and S473” value [4] was “substantial decrease”, the “p53 S15, STAT3 Y705 phosphorylation and HSP 60” value [4] was “less considerable decrease” and the “phosphorylation of CREB, EGFR, and eNOS” value [4] was “modest increase”. The inhibition of butyrylcholinesterase (butyrylcholinesterase) was “potent inhibitor”, the “anti-microbial activity against Plasmodium falciparum” value (Plasmodium falciparum) was “weak anti-microbial activity” and the “cytotoxicity in the KB cell line” value (KB cell line) was “low cytotoxicity”.
